Where “and” joins values, the source holds several entries; their conditions need not be identical. Identical values can stand only once.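 Interpolation was linear, between the two tested concentrations surrounding the appropriate level; five concentrations were tested over 48 hours in 96-well plates. GI50 is the concentration that inhibits growth by half. TGI denotes the concentration required for complete inhibition of growth.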 Where a SMILES comes first, the peptide text is derived from it. Bridges are numbered along the chain shown (N, C = ends). [ ]: non-standard residue; d: D form. The star is where a group is joined. ξ: configuration not given here. ξDab(CH2SO3H) = NC(CCNCS(=O)(=O)O)C(=O)O; Heptanoyl(6-Me) = CC(C)CCCCC(=O)*; Dab = NCC[CH](N)C(=O)O

The text below walks through data of PubChem BioAssay (NCI).

What all share (assay): DTP human tumour cell line panel, 48 h
Assay [1] deals with 786-0 renal.
In assay [2] the test system is K-562 leukemia.
The subject of assay [3] is NCI-H460 lung.
For assay [4], the system named is NCI/ADR-RES ovarian.
The test system of assay [5] is OVCAR-4 ovarian.
Assay [6] deals with OVCAR-8 ovarian.
Assay [7] deals with SF-539 CNS.
In assay [8] the test system is U251 CNS.
In assay [9] the test system is UACC-257 melanoma.
Assay [10] deals with TK-10 renal.

As to `COc1cc2c(cc1Cc1cccc(Cl)c1F)c(=O)c(C(=O)O)cn2[C@@H](CO)C(C)C`, the GI50 – broadly, the concentration that inhibits growth by half – in assay [1] was 3.55 µM; in assay [2] it was 3.84 µM; in [3] it was 3.07 µM; in assay [4], 4.99 µM; in assay [5] it was 3.7 µM; in [6] it was 3.03 µM. Also, the GI50 in assay [7] was 3.39 µM; in assay [8] it was 3.17 µM; in [9], 3.23 µM. For the same compound, the TGI (in general, the concentration at which net growth stops) in assay [1] was 14.9 µM; in assay [2] it was 16.3 µM; in [3] it was 10.6 µM; in assay [4] it was 19.4 µM; in assay [5] it was 16.6 µM; in assay [6], 11.8 µM. In addition, the TGI in assay [7] was determined as 10.7 µM; in assay [8], 12.2 µM; in [9], 14 µM.

For `COc1cccc(/C=N/NC(=O)c2ccccc2N2CCCC2)c1O`, the GI50 in assay [1] is 3.58 µM; in [2], 5.45 µM; in [3] it was 3.25 µM; in assay [4], 2.8 µM; in assay [5], 2.63 µM; in [6] it was 5.49 µM. Moreover, the GI50 in [7] was 3.73 µM; in assay [10] it was 5.38 µM; in [8], 4.27 µM; in assay [9], 3.05 µM. Besides, the TGI in [1] was more than 100 µM; in assay [2], more than 100 µM; in assay [3], 52 µM; in [4], more than 100 µM; in assay [5] it was more than 100 µM; in [6], more than 100 µM. The TGI in assay [7] is 24.1 µM; in [10], more than 100 µM; in [8], more than 100 µM; in assay [9] it was more than 100 µM.

`O=C([O][Hg][CH2]C1OCCOC1[CH2][Hg][O]C(=O)c1ccccc1)c1ccccc1` (configuration not stated): the GI50 is 12.9 µM in [1]; 1.83 µM in assay [2]; 19.1 µM in [3]; 18.7 µM in [4]; 6.07 µM in assay [5]; 14.9 µM in assay [6]. Also, the GI50 is 13.3 µM in [7], 1.91 µM in [10], 15.1 µM in assay [8] and 1.89 µM in assay [9]. The TGI in [1] amounted to 25.5 µM; in assay [2], 5.46 µM; in assay [3], 36.2 µM; in assay [4], 40.7 µM; in [5] it was 12.7 µM; in assay [6], 44 µM. For the same compound, the TGI worked out at 29.7 µM in assay [7], 3.35 µM in assay [10], 28.4 µM in [8] and 3.4 µM in assay [9].

For the compound `CCCCCCCCC/C(=N\NC(=O)c1ccncc1)c1ccc(O)c(O)c1O`, the GI50 in assay [1] was 0.216 µM; in [2], 0.498 µM; in assay [3], 0.0705 µM; in assay [4], 0.093 µM; in assay [5], 0.12 µM; in assay [6] it was 0.179 µM. The GI50 was 0.294 µM in assay [7], 0.196 µM in assay [10], 0.11 µM in assay [8] and 0.293 µM in assay [9]. Also, the TGI in assay [1] was 5.75 µM; in assay [2], more than 100 µM; in [3], 1.1 µM; in [4] it was 11.4 µM; in [5], 18 µM; in assay [6] it was more than 100 µM. Also, the TGI in assay [7] is 8.71 µM; in assay [10], more than 100 µM; in assay [8] it was 65.9 µM; in [9], 9.32 µM.

Regarding `CN1CCC2(CC1)NC(=O)c1c(c3ccc(Cl)c(Cl)c3n1C)C2C#N` (configuration not stated), the GI50 is 10.1 µM in [1]; 5.76 µM in assay [2]; 2.75 µM in assay [3]; 7.46 µM in assay [4]; 11.7 µM in assay [5]; 10.4 µM in assay [6]. Further, the GI50 was 5.51 µM in assay [7], 10.5 µM in assay [10], 11.1 µM in assay [8] and 2.12 µM in [9]. For the same compound, the TGI in [1] was 24 µM; in assay [2], more than 100 µM; in assay [3], 14.3 µM; in assay [4], 23 µM; in assay [5], more than 56 µM; in assay [6] it was 36.6 µM. Moreover, the TGI in assay [7] came out at 17.9 µM; in assay [10] it was 23.4 µM; in [8], 26.2 µM; in assay [9], 4.71 µM.

Regarding `[Cl][Hg][c]1ccc(Cl)s1`, the GI50 in assay [1] was 1.29 µM; in [2] it was 0.729 µM; in [3] it was 8.9 µM; in assay [4] it was 3.31 µM; in assay [5] it was 1.76 µM; in assay [6], 2.51 µM. Moreover, the GI50 in [7] is 2.03 µM; in assay [10], 1.66 µM; in assay [8], 0.91 µM; in [9], 1.54 µM. For the same compound, the total growth inhibition concentration (TGI) in assay [1] is 2.61 µM; in assay [2], 7.29 µM; in [3] it was 35.7 µM; in assay [4] it was 23.3 µM; in assay [5], 4.78 µM; in assay [6] it was 6.25 µM. Moreover, the TGI in assay [7] was 4.46 µM; in assay [10], 3.09 µM; in assay [8] it was 2.71 µM; in [9], 3.04 µM.

Regarding `N#Cc1c(N2CCOCC2)nc(=S)[nH]c1-c1ccccc1`, the GI50 in assay [1] was 14.1 µM; in [2] it was 52 µM; in assay [3], 9.57 µM; in [4], 53.4 µM; in assay [5], 65.7 µM; in assay [6], 39.2 µM. Moreover, the GI50 is 13.2 µM in assay [7], 20.7 µM in [10], 60.1 µM in assay [8] and 49.8 µM in assay [9]. Besides, the TGI in [1], in assay [2], in assay [3], in assay [4], in assay [5] and in assay [6] was more than 100 µM each time. The total growth inhibition concentration (TGI) in assay [7], in assay [10], in [8] and in [9] was more than 100 µM throughout.

Consider `S=C(NCCNC(=S)[S][Sn]([c]1ccccc1)([c]1ccccc1)[c]1ccccc1)[S][Sn]([c]1ccccc1)([c]1ccccc1)[c]1ccccc1`, for which the GI50 was 0.0366 µM in assay [1]; 0.0168 µM in assay [2]; 0.0169 µM in [3]; 0.0184 µM in assay [4]; 0.0212 µM in [5]; 0.0445 µM in assay [6]. The GI50 is 0.0682 µM in assay [7], 0.0612 µM in [10], 0.0187 µM in [8] and 0.0522 µM in assay [9]. Moreover, the TGI in [1] turned out to be 0.104 µM; in assay [2] it was 0.144 µM; in [3], 0.0575 µM; in assay [4] it was 0.0976 µM; in [5], 0.0805 µM; in assay [6], 0.202 µM. Also, the TGI is 0.203 µM in assay [7], 0.126 µM in [10], 0.064 µM in [8] and 0.117 µM in [9].

For `Cn1nc(C(F)(F)F)cc1-c1c[nH]c(OCc2ccc(Cl)cc2)c(-c2ccc(Cl)c(C(F)(F)F)c2)c1=O`, the GI50 in assay [1] is 1.25 µM; in assay [2] it was 0.724 µM; in assay [3], 0.944 µM; in assay [4] it was 1.42 µM; in assay [5], 1.43 µM; in assay [6], 1.19 µM. Also, the GI50 in assay [7] was 1.24 µM; in assay [10] it was 1.8 µM; in [8], 1.27 µM; in assay [9], 0.919 µM. Further, the concentration for total growth inhibition (TGI) in [1] was 4.37 µM; in assay [2], more than 50 µM; in assay [3] it was 5 µM; in assay [4], more than 50 µM; in [5], more than 50 µM; in assay [6] it was more than 50 µM. In addition, the TGI in [7] is 3.96 µM; in assay [10] it was more than 36.6 µM; in [8], more than 17.5 µM; in [9], 3.6 µM.

For `COc1cc(-c2oc3c(OC)cc(OC)c(O)c3c(=O)c2OC)cc(OC)c1OC`, the TGI is more than 100 µM in [1]; more than 100 µM in [2]; more than 100 µM in [3]; more than 100 µM in assay [4]; more than 100 µM in assay [5]; 32.7 µM in assay [6]. Moreover, the TGI in assay [7], in [10] and in assay [8] was more than 100 µM each time.

Turning to `CCC(C)C1NC(=O)C(CCNCS(=O)(=O)O)NC(=O)C(NC(=O)C(CCNCS(=O)(=O)O)NC(=O)C(NC(=O)C(CCNCS(=O)(=O)O)NC(=O)CCCCC(C)C)C(C)O)CCNC(=O)C(C(C)O)NC(=O)C(CCNCS(=O)(=O)O)NC(=O)C(CCNCS(=O)(=O)O)NC(=O)C(C(C)CC)NC1=O` (configuration not stated) ({Heptanoyl(6-Me)}-[ξDab(CH2SO3H)]T[ξDab(CH2SO3H)][Dab][ξDab(CH2SO3H)]II[ξDab(CH2SO3H)][ξDab(CH2SO3H)]T; lactam 4-C; configuration not given here), the GI50 in assay [1] was 13 µM; in assay [3] it was 6.86 µM; in assay [4], more than 25 µM; in [5], 11.3 µM; in [6], 9.66 µM; in assay [7], 7.16 µM. The figures for the GI50 in assay [10], in assay [8] and in [9] were more than 25 µM, 8.05 µM and 11.7 µM, respectively. The TGI in assay [1] was more than 25 µM; in assay [3] it was 22.1 µM; in assay [4] it was more than 25 µM; in [5], more than 25 µM; in assay [6] it was more than 25 µM; in assay [7], more than 25 µM. In addition, the total growth inhibition concentration (TGI) in [10], in [8] and in assay [9] was more than 25 µM each time.

On to `CONC(C)=O`, for which the TGI in assay [1], in assay [2], in assay [3], in [4], in [6] and in assay [7] was more than 100 µM throughout. Besides, the total growth inhibition concentration (TGI) in assay [10], in assay [8] and in assay [9] was more than 100 µM throughout.

In the case of `N#Cc1c(N)n2c(nc1=Nc1ccc(Cl)cc1)sc1cc(Cl)ccc12`, the GI50 in assay [1] is 5.46 µM and 2.5 µM; in [2], more than 100 µM; in assay [3] it was 22 µM; in [4] it was 4.69 µM; in assay [5], 9.82 µM; in assay [7] it was 8.7 µM. Besides, the GI50 in assay [10] is 15 µM; in assay [8], 6.56 µM; in assay [9], more than 100 µM. Further, the TGI in assay [1] was 5.03 µM; in assay [2], more than 100 µM; in assay [3] it was more than 100 µM; in assay [4], 34.8 µM; in assay [5], more than 100 µM; in assay [7] it was more than 100 µM. In addition, the TGI in assay [10], in assay [8] and in assay [9] was more than 100 µM each time.

Consider `O=c1[nH]c(=O)c2cc3cc(C4CC(O)C(CO)O4)ccc3cc2[nH]1` (configuration not stated), for which the GI50 in [1] is more than 100 µM; in assay [2], more than 100 µM; in assay [3], more than 100 µM; in [4], more than 100 µM; in assay [5], 58.7 µM; in [6], more than 100 µM. The GI50 in assay [7], in [8] and in assay [9] was more than 100 µM each time. In addition, the TGI in assay [1], in assay [2], in [3], in assay [4], in assay [5] and in assay [6] was more than 100 µM throughout. Further, the TGI in [7], in assay [8] and in [9] was more than 100 µM each time.

For `NC(N)=NC(N)=Nc1cnccn1`, the TGI in [1], in assay [2], in assay [4], in assay [5], in [6] and in [7] was more than 100 µM throughout. The TGI in [10], in [8] and in assay [9] was more than 100 µM each time.

Regarding `COC(=O)C1=CO[C@@H](OC2OC(CO)C(O)C(O)C2O)[C@H]2[C@@H](C)[C@@H](O)[C@@H](O)[C@@H]12` (some centres not stated), the TGI in assay [1], in assay [4], in assay [5], in [6], in assay [7] and in assay [10] was more than 100 µM each time. Also, the TGI in assay [8] and in assay [9] was more than 100 µM in each case.
